PubChem BioAssay (NCI)
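Test compounds were applied to cells in 96-well plates for 48 hours at 5 doses. GI50: concentration for 50% inhibition of growth. TGI denotes the concentration required for complete inhibition of growth.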

Legend:
Assay in all cases: growth of human tumour cells (NCI), 48 h
M14 melanoma = tested on: M14 melanoma
NCI-H23 lung = tested on: NCI-H23 lung
HCT-15 colon = tested on: HCT-15 colon
SK-OV-3 ovarian = tested on: SK-OV-3 ovarian
HCT-116 colon = tested on: HCT-116 colon
HCC-2998 colon = tested on: HCC-2998 colon
OVCAR-8 ovarian = tested on: OVCAR-8 ovarian
NCI/ADR-RES ovarian = tested on: NCI/ADR-RES ovarian
SF-539 CNS = tested on: SF-539 CNS
SK-MEL-28 melanoma = tested on: SK-MEL-28 melanoma
A549 NSCLC = tested on: A549 NSCLC
SK-MEL-2 melanoma = tested on: SK-MEL-2 melanoma
MOLT-4 leukemia = tested on: MOLT-4 leukemia
RPMI-8226 leukemia = tested on: RPMI-8226 leukemia
U251 CNS = tested on: U251 CNS
A498 renal = tested on: A498 renal
UACC-257 melanoma = tested on: UACC-257 melanoma
RXF 393 renal = tested on: RXF 393 renal
OVCAR-5 ovarian = tested on: OVCAR-5 ovarian
LOX IMVI melanoma = tested on: LOX IMVI melanoma
HS 578T breast = tested on: HS 578T breast
KM12 colon = tested on: KM12 colon
UO-31 renal = tested on: UO-31 renal
EKVX NSCLC = tested on: EKVX NSCLC
SW-620 colon = tested on: SW-620 colon
NCI-H226 lung = tested on: NCI-H226 lung
UACC-62 melanoma = tested on: UACC-62 melanoma
OVCAR-4 ovarian = tested on: OVCAR-4 ovarian
HT29 colon = tested on: HT29 colon
HL-60(TB) leukemia = tested on: HL-60(TB) leukemia
MALME-3M melanoma = tested on: MALME-3M melanoma
MCF7 breast = tested on: MCF7 breast
DU-145 prostate = tested on: DU-145 prostate
MDA-MB-435 = tested on: MDA-MB-435
NCI-H522 lung = tested on: NCI-H522 lung
SNB-75 CNS = tested on: SNB-75 CNS
NCI-H460 lung = tested on: NCI-H460 lung
CCRF-CEM leukemia = tested on: CCRF-CEM leukemia
786-0 renal = tested on: 786-0 renal
SK-MEL-5 melanoma = tested on: SK-MEL-5 melanoma
TK-10 renal = tested on: TK-10 renal
IGROV1 ovarian = tested on: IGROV1 ovarian
SR leukemia = tested on: SR leukemia
HOP-92 NSCLC = tested on: HOP-92 NSCLC
SF-295 CNS = tested on: SF-295 CNS
COLO 205 colon = tested on: COLO 205 colon
BT-549 breast = tested on: BT-549 breast
PC-3 prostate = tested on: PC-3 prostate
K-562 leukemia = tested on: K-562 leukemia
HOP-62 NSCLC = tested on: HOP-62 NSCLC
SF-268 CNS = tested on: SF-268 CNS
SNB-19 CNS = tested on: SNB-19 CNS
OVCAR-3 ovarian = tested on: OVCAR-3 ovarian
ACHN renal = tested on: ACHN renal
SN12C renal = tested on: SN12C renal
MDA-MB-231 breast = tested on: MDA-MB-231 breast
T-47D breast = tested on: T-47D breast

Q: With CC(C)(C)OC(=O)N1CC(Cn2cc(C(F)(F)F)c3c(Cl)ncnc32)C1 as the molecule, how does the GI50 (M14 melanoma) read?
A: 1.72 µM

Q: What about the TGI (M14 melanoma) of the same molecule?
A: 3.38 µM

Q: What about the GI50 (NCI-H23 lung) of the same molecule?
A: 1.84 µM

Q: What about the TGI (NCI-H23 lung) of the same molecule?
A: 3.58 µM

Q: And the GI50 (HCT-15 colon)?
A: 2 µM

Q: And the TGI (HCT-15 colon)?
A: 4.4 µM

Q: What about the GI50 (SK-OV-3 ovarian) of the same molecule?
A: 2.91 µM

Q: What about the TGI (SK-OV-3 ovarian) of the same molecule?
A: 8.21 µM

Q: And the GI50 (HCT-116 colon)?
A: 1.86 µM

Q: And the TGI (HCT-116 colon)?
A: 3.35 µM

Q: What about the GI50 (HCC-2998 colon) of the same molecule?
A: 1.79 µM

Q: And the TGI (HCC-2998 colon)?
A: 3.34 µM

Q: And the GI50 (OVCAR-8 ovarian)?
A: 1.84 µM

Q: What about the TGI (OVCAR-8 ovarian) of the same molecule?
A: 3.58 µM

Q: And the GI50 (NCI/ADR-RES ovarian)?
A: 13.9 µM

Q: And the TGI (NCI/ADR-RES ovarian)?
A: 65.4 µM

Q: What about the GI50 (SF-539 CNS) of the same molecule?
A: 11.3 µM

Q: What about the TGI (SF-539 CNS) of the same molecule?
A: 24.6 µM

Q: And the GI50 (SK-MEL-28 melanoma)?
A: 1.91 µM

Q: What about the TGI (SK-MEL-28 melanoma) of the same molecule?
A: 3.53 µM

Q: And the GI50 (A549 NSCLC)?
A: 14 µM

Q: What about the TGI (A549 NSCLC) of the same molecule?
A: 28.2 µM

Q: What about the GI50 (SK-MEL-2 melanoma) of the same molecule?
A: 1.84 µM

Q: And the TGI (SK-MEL-2 melanoma)?
A: 3.47 µM

Q: And the GI50 (MOLT-4 leukemia)?
A: 2.39 µM

Q: And the TGI (MOLT-4 leukemia)?
A: 6.28 µM

Q: And the GI50 (RPMI-8226 leukemia)?
A: 2.67 µM

Q: What about the TGI (RPMI-8226 leukemia) of the same molecule?
A: 6.33 µM

Q: What about the GI50 (U251 CNS) of the same molecule?
A: 1.79 µM

Q: And the TGI (U251 CNS)?
A: 3.26 µM

Q: And the GI50 (A498 renal)?
A: 4.81 µM

Q: And the TGI (A498 renal)?
A: 16.8 µM

Q: What about the GI50 (UACC-257 melanoma) of the same molecule?
A: 2.2 µM

Q: And the TGI (UACC-257 melanoma)?
A: 5.43 µM

Q: And the GI50 (RXF 393 renal)?
A: 1.43 µM

Q: And the TGI (RXF 393 renal)?
A: 3.59 µM

Q: And the GI50 (OVCAR-5 ovarian)?
A: 20.5 µM

Q: What about the TGI (OVCAR-5 ovarian) of the same molecule?
A: 57.5 µM

Q: What about the GI50 (LOX IMVI melanoma) of the same molecule?
A: 1.75 µM

Q: What about the TGI (LOX IMVI melanoma) of the same molecule?
A: 3.27 µM

Q: What about the GI50 (HS 578T breast) of the same molecule?
A: 2.36 µM

Q: What about the TGI (HS 578T breast) of the same molecule?
A: 6.55 µM

Q: What about the GI50 (KM12 colon) of the same molecule?
A: 2.34 µM

Q: What about the TGI (KM12 colon) of the same molecule?
A: 5.35 µM

Q: And the GI50 (UO-31 renal)?
A: 2.71 µM

Q: What about the TGI (UO-31 renal) of the same molecule?
A: 10.8 µM

Q: What about the GI50 (EKVX NSCLC) of the same molecule?
A: 2.63 µM

Q: What about the TGI (EKVX NSCLC) of the same molecule?
A: 10.2 µM

Q: And the GI50 (SW-620 colon)?
A: 3.3 µM

Q: And the TGI (SW-620 colon)?
A: 10.6 µM

Q: What about the GI50 (NCI-H226 lung) of the same molecule?
A: 18.9 µM

Q: What about the TGI (NCI-H226 lung) of the same molecule?
A: 41.9 µM

Q: What about the GI50 (UACC-62 melanoma) of the same molecule?
A: 1.85 µM

Q: And the TGI (UACC-62 melanoma)?
A: 3.65 µM

Q: What about the GI50 (OVCAR-4 ovarian) of the same molecule?
A: 10.2 µM

Q: What about the TGI (OVCAR-4 ovarian) of the same molecule?
A: 23.2 µM

Q: And the GI50 (HT29 colon)?
A: 2.6 µM

Q: What about the TGI (HT29 colon) of the same molecule?
A: 6.67 µM

Q: What about the GI50 (HL-60(TB) leukemia) of the same molecule?
A: 2.37 µM

Q: And the TGI (HL-60(TB) leukemia)?
A: 5.82 µM

Q: And the GI50 (MALME-3M melanoma)?
A: 12.4 µM

Q: And the TGI (MALME-3M melanoma)?
A: 26.6 µM

Q: And the GI50 (MCF7 breast)?
A: 2.13 µM

Q: What about the TGI (MCF7 breast) of the same molecule?
A: 6.15 µM

Q: And the GI50 (DU-145 prostate)?
A: 1.79 µM

Q: What about the TGI (DU-145 prostate) of the same molecule?
A: 3.18 µM

Q: And the GI50 (MDA-MB-435)?
A: 1.72 µM

Q: What about the TGI (MDA-MB-435) of the same molecule?
A: 3.14 µM

Q: What about the GI50 (NCI-H522 lung) of the same molecule?
A: 13.3 µM

Q: What about the TGI (NCI-H522 lung) of the same molecule?
A: 28.4 µM

Q: What about the GI50 (SNB-75 CNS) of the same molecule?
A: 4.99 µM

Q: What about the TGI (SNB-75 CNS) of the same molecule?
A: 18.1 µM

Q: What about the GI50 (NCI-H460 lung) of the same molecule?
A: 2.06 µM

Q: What about the TGI (NCI-H460 lung) of the same molecule?
A: 3.99 µM

Q: What about the GI50 (CCRF-CEM leukemia) of the same molecule?
A: 3.05 µM

Q: And the TGI (CCRF-CEM leukemia)?
A: 9.19 µM

Q: What about the GI50 (786-0 renal) of the same molecule?
A: 16.8 µM

Q: What about the TGI (786-0 renal) of the same molecule?
A: 36.7 µM

Q: What about the GI50 (SK-MEL-5 melanoma) of the same molecule?
A: 1.79 µM

Q: And the TGI (SK-MEL-5 melanoma)?
A: 3.21 µM

Q: What about the GI50 (TK-10 renal) of the same molecule?
A: 24.6 µM

Q: What about the TGI (TK-10 renal) of the same molecule?
A: 62.5 µM

Q: What about the GI50 (IGROV1 ovarian) of the same molecule?
A: 1.86 µM

Q: And the TGI (IGROV1 ovarian)?
A: 3.92 µM

Q: What about the GI50 (SR leukemia) of the same molecule?
A: 0.726 µM

Q: What about the TGI (SR leukemia) of the same molecule?
A: > 100 µM

Q: And the GI50 (HOP-92 NSCLC)?
A: 4.5 µM

Q: And the TGI (HOP-92 NSCLC)?
A: 21.4 µM

Q: What about the GI50 (SF-295 CNS) of the same molecule?
A: 1.99 µM

Q: What about the TGI (SF-295 CNS) of the same molecule?
A: 4.75 µM

Q: What about the GI50 (COLO 205 colon) of the same molecule?
A: 12.6 µM

Q: What about the TGI (COLO 205 colon) of the same molecule?
A: 28.5 µM

Q: And the GI50 (BT-549 breast)?
A: 1.62 µM

Q: And the TGI (BT-549 breast)?
A: 3.06 µM

Q: And the GI50 (PC-3 prostate)?
A: 1.76 µM

Q: What about the TGI (PC-3 prostate) of the same molecule?
A: 3.5 µM

Q: What about the GI50 (K-562 leukemia) of the same molecule?
A: 2.81 µM

Q: What about the TGI (K-562 leukemia) of the same molecule?
A: > 100 µM

Q: What about the GI50 (HOP-62 NSCLC) of the same molecule?
A: 1.95 µM

Q: What about the TGI (HOP-62 NSCLC) of the same molecule?
A: 3.93 µM

Q: What about the GI50 (SF-268 CNS) of the same molecule?
A: 1.75 µM

Q: And the TGI (SF-268 CNS)?
A: 3.4 µM

Q: What about the GI50 (SNB-19 CNS) of the same molecule?
A: 1.8 µM

Q: And the TGI (SNB-19 CNS)?
A: 3.33 µM

Q: What about the GI50 (OVCAR-3 ovarian) of the same molecule?
A: 1.92 µM

Q: And the TGI (OVCAR-3 ovarian)?
A: 3.6 µM

Q: And the GI50 (ACHN renal)?
A: 15 µM

Q: What about the TGI (ACHN renal) of the same molecule?
A: 31.9 µM

Q: What about the GI50 (SN12C renal) of the same molecule?
A: 2.32 µM

Q: And the TGI (SN12C renal)?
A: 6.12 µM

Q: And the GI50 (MDA-MB-231 breast)?
A: 6.92 µM

Q: And the TGI (MDA-MB-231 breast)?
A: 23.4 µM

Q: And the GI50 (T-47D breast)?
A: 5.51 µM

Q: What about the TGI (T-47D breast) of the same molecule?
A: 27.1 µM
